Assay results from patent US7005447B2, “Food product comprising hydroxymatairesinol” (Hormos Nutraceutical Oy Ltd., priority 1999, dated 2006).
Where two headings read alike, the source gives them in different places. Each block holds one molecule with its values, some of them ahead of it.

Experiments:
aromatase = molecular target: T1, aromatase (Homo sapiens, UniProt P11511); experiment: Aromatase inhibiting capacity in JEG-3 cells (3H-17β-estradiol formation from 3H-androstenedione); assay type: cell-based; details: 4 h incubation, FIG. 1
T1 construct: 800 μl cell suspension (1 million cells); endogenous in cells; host or cells: JEG-3 human choriocarcinoma cells
T1 sequence (P11511 1-503): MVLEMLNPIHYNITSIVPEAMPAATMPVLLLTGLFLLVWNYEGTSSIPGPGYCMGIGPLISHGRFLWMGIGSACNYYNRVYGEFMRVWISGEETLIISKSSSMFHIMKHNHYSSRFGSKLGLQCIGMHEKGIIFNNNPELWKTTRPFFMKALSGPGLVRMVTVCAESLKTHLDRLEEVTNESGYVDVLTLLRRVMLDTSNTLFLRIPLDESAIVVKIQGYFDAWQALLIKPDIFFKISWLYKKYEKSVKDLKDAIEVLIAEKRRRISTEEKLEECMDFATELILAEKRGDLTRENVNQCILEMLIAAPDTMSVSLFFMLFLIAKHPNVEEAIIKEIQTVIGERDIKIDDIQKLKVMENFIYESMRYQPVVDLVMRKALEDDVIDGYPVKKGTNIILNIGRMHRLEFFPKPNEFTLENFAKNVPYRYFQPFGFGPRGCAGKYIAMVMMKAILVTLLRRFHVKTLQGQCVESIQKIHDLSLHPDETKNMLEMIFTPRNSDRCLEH
Experimental: The effects of HMR and structurally related lignans (enterolactone, enterodiol and 7-hydroxyenterolactone) were studied on formation of ^3H-17β-estradiol from ^3H-andostenedione in JEG-3 cells, human choriocarcinoma cell line. […] Cells were maintained in DMEM containing 10% fetal calf serum (FCS). The incubation mixture contained 50 μl ^3H-androst-4-ene, 3,17-dione (0.5 nM), 50 μl unlabelled androstenedione (0.5 nM), 100 μl test compounds (10 mM) and 800 μl cell suspension (1 million cells). After the incubation for 4 h, unlabelled carriers (androstenedione, testosterone, 17β-estradiol and estrone) were added. The steroids were extracted twice with 3.0 ml dichloromethane. […] The column system consisted of a guard column followed by a C18 150×3.9 mm ID analytical column (Technopak 10 C18 HPLC Technology; Wellington House, Cheshire, UK). The mobile phase was acetonitrile/water (35/65) and the flow rate was 1.2 ml/min. For in-line detection of the radioactive metabolites, the eluent of the HPCL column was continuously mixed with liquid scintillant and then monitored with in-line radioactivity detector.

[1] = system: tert-butylhydroperoxide-induced lipid peroxidation (t-BuOOH-LP) in rat liver microsomes; experiment: Inhibition of tert-butylhydroperoxide-induced lipid peroxidation (t-BuOOH-LP), chemiluminescence; assay type: biochemical
Experimental: Inhibition of lipid peroxidation was evaluated on the basis of their potency to inhibit tert-butylhydroperoxide-induced lipid peroxidation (t-BuOOH-LP) in rat liver microsomes in vitro (Ahotupa et al. 1997). The test for the t-BuOOH-LP was carried out as follows: The buffer (50 mM sodium carbonate, pH 10.2, with 0.1 mM EDTA) was pipetted in a volume of 0.8 ml in the luminometer cuvette. Twenty microliters of diluted liver microsomes, final concentration 1.5 mg protein/ml, was added, followed by […] of luminol (0.5 mg/ml) and test chemicals. The test compounds were added to incubation mixtures in a small volume diluted in ethanol or dimethylsulphoxide (2% of incubation volume), and the lipid peroxidation potency was compared to that of the vehicle (ethanol or dimethyl sulphoxide). The reaction was initiated by 0.05 ml of 0.9 mM t-BuOOH at 33° C. Chemiluminescence was measured for about 45 min at 1 min cycles, and the area under curve (integral) was calculated. Chemiluminescence measurements were carried out using a Bio-Orbit 1251 Luminometer (Bio-Orbit, Turku, Finland) connected to a personal computer using dedicated software for the assays.

uterine weight = details: feeding during pregnancy and lactation to rats; effect not evident at later stages; Tou et al. 1998; cited from earlier work
[2] = system: antiestrogen-sensitive DMBA-induced breast cancer; details: supplementation of a high-fat diet, rat; Serraino and Thompson, Thompson et al.; cited from earlier work
[3] = system: chemically induced aberrant crypts in rat colon; details: diet supplementation; Serraino and Thompson 1992, Jenab and Thompson 1996; cited from earlier work
MCF-7 cells = details: Mousavi and Adlercreutz 1992; cited from earlier work
mouse uterine weight = details: Setchell et al. 1981; cited from earlier work
[4] = Superoxide anion scavenging (xanthine-xanthine oxidase system, chemiluminescence); assay type: biochemical; details: read-out: Superoxide anion scavenging, IC-50
Experimental: Superoxide anion scavenging method was based on the superoxide anion produced in controlled conditions by xanthine-xanthine oxidase system and detection of the generated reactive oxygen species by luminometer (Ahotupa et al., 1997). The ability of test compounds to decrease the chemiluminescence was evaluated. IC-50 concentration (concentration which prevented the chemiluminescence by 50%) was calculated.

[5] = system: uterine growth of immature rats; experiment: Immature rat uterotropic test; assay type: in vivo; details: methodological control for non-estrogen-stimulated uterus
Experimental: The estrogenicity HMR was evaluated by the uterotropic assay in immature rats which was performed as described earlier (Jordan et al. 1977), with the exception of treatment time which was 7 days instead of 3 days in the reference study. The treatment time was longer because of the expected weak estrogenicity of the test compound. The treatment of immature rats with an aromatase inhibitor (MPV-2213 ad), which prevents biosynthesis of estradiol, was used as a methodological control for non-estrogen-stimulated uterus.

[6] = system: low density lipoprotein (LDL) oxidation; experiment: Inhibition of LDL oxidation (CuCl2-induced, absorbance at 234 nm); assay type: biochemical; details: CuCl2, 3 hrs at +37° C.; read-out: Inhibition of LDL oxidation, IC-50
Experimental: Inhibition of LDL oxidation was estimated as described by Ahotupa et al, 1996. Shortly: LDL was isolated by precipitation with buffered heparin. After resuspendation in phosphate buffer, 20 mM CuCl2 was added and the mixture was incubated for 3 hrs at +37° C. After this, LDL lipids were extracted with chloroform-methanol, dried under nitrogen, redissolved in cyclohexane and analyzed spectrophotometrically at 234 nm. The intensity of absorbance is indicative of LDL oxidation. To test the ability of different compounds to prevent LDL oxidation, the compounds were added to the incubation mixture prior addition of CuCl2. Possible interference of test compounds with the assay procedure was excluded by measuring the absorption at 234 nm before and after the incubation period.

[7] = lipid peroxidation inhibition test, rat liver microsomes, Table 2, read-out: Antioxidative capacity (t-BuOOH-LP) IC50
[8] = Table 3 comparison with known antioxidants, read-out: Inhibition of lipid peroxidation, IC-50

Molecule: O=c1c(O)c(-c2ccc(O)c(O)c2)oc2cc(O)cc(O)c12 [quercetin, 3,3′,4′,5,7-pentahydroxy-flavone]
IC50 [1, 7]: 0.4 µM

Molecule: secoisolariciresinol-diglycoside [SDG]
Uterine weight (uterine weight): increased the uterine weight at weaning
Development of DMBA-induced breast cancer [2]: prevented the development
Formation of chemically induced aberrant crypts in rat colon [3]: inhibited the formation

Molecule: O=C1OCC(Cc2cccc(O)c2)C1Cc1cccc(O)c1 (stereo not drawn) [enterolactone, 2,3-bis-(3′-hydroxybenzyl)-butyrolactone]
Estrogenic potency in MCF-7 cells (MCF-7 cells): weak estrogenic potency
Inhibition of aromatization (3H-17β-estradiol formation from 3H-androstenedione) (aromatase): dose-dependent inhibition
Estrogenic response in mouse uterine weight (mouse uterine weight): no estrogenic response
IC50 [1, 7]: 15.9 µM

Molecule: COc1ccc(O)c(C(C)(C)C)c1 [BHA, Butylated hydroxyanisol]
IC50 [4]: 0.015 mM
IC50 [1, 8]: 1.1 µM

Molecule: OCC(Cc1cccc(O)c1)C(CO)Cc1cccc(O)c1 (stereo not drawn) [enterodiol, 2,3-bis-(3′-hydroxybenzyl)-butane-1,4-diol]
Inhibition of aromatization (3H-17β-estradiol formation from 3H-androstenedione) (aromatase): noninhibitory
IC50 [1, 7]: 12.7 µM

Molecule: N#Cc1ccc(C(C(O)Cc2ccc(F)cc2)n2cncn2)cc1 (stereo not drawn) [MPV-2213 ad, reference compound]
Effect on increase of uterine weight [5]: prevented the increase of uterine weight

Second part, the molecule after the results:

Inhibition of aromatization (3H-17β-estradiol formation from 3H-androstenedione) (aromatase): no inhibitory effects
Molecule: O=C1OC[C@H](Cc2cccc(O)c2)[C@H]1[C@@H](O)c1cccc(O)c1 [7-hydroxyenterolactone]

IC50 [1, 7]: 0.5 µM
Molecule: COc1ccc(-c2oc3cc(O)cc(O)c3c(=O)c2O)cc1 [kaempferide, 3,5,7-trihydroxy-4′-methoxy-flavone]

IC50 ([4]; value in mM): > 1 mM
IC50 [1, 8]: 15.3 µM
Molecule: Cc1cc(C(C)(C)C)c(O)c(C(C)(C)C)c1 [BHT, Butylated hydroxytoluene]

IC50 [1, 7]: 0.9 µM
Molecule: O=c1c(O)c(-c2ccc(O)cc2)oc2cc(O)cc(O)c12 [kaempferol, 3,4′,5,7-tetrahydroxy-flavone]

IC50 [4]: 0.025 mM
IC50 [1, 8]: 0.02 µM
IC50 [6]: 2.7 µM
Molecule: Cc1c(C)c2c(c(C)c1O)CCC(C)(C(=O)O)O2 (stereo not drawn) [TROLOX]
